One assay relates to wheat plants. The assay can be described thus: Wheat grain yield, 450 ml pots in peat-based medium. It counts as in vivo, wheat (Triticum turgidum var. 'Gdera'). As to conditions: one spray WS-CPD 120 μl L^−1 (so in the source) at milky stage II. The protocol:
In another experiment the wheat plants were grown in 450 ml pots in a peat-based medium. The plants were sprayed once with WS-CPD (120 μl L^−1) at milky stage II, 7 months after germination. The results confirmed previous results, showing a −15% increase in grain yield over the weight of the grains of untreated control plants (FIG. 54). This is also evident when calculating the distribution of grain weight (as percentage of the total number of grains) and comparing them with grain weight distribution from control plants.

The subject of the next assay is young cotton seedlings. The assay can be described thus: Ethylene-induced leaf epinasty of young cotton seedlings. It counts as in vivo, cotton (Gossyium hirsutum barbadense L.). How it is done: (1) Abscission-This is a very sensitive model system for studying the effects of plant hormones. Ethylene induces the process of abscission, while auxin delays it. In the laboratory the experimental system is based on plant organ explants, which include the abscission zone. Abscission is induced by exposure to ethylene and at the termination of the experiment the number of abscised organs, usually either leaf blades or petioles are counted and the fraction of abscission is calculated. In the case of fruit, the decrease in fruit retention force is analyzed. […] The plants or explants are then further exposed for 24 h to ethylene gas (5 to 20 μL L^-1). The plants or explants are then ventilated and incubated for the required time under controlled conditions. At the end of the experiment the percentage of abscission is determined. […] Plant material (whole plants, excised leaves or leaf discs) are pretreated. […] The plants or explants are then ventilated and incubated for the required time under controlled conditions. At the end of the experiment a dimethylsulfoxide (DMSO) extract of the plant tissue is prepared, and the chlorophyll content of the extract is determined by spectrophotometric analysis. […] The extent of ethylene-induced epinasty of leaves is determined by measuring the change of the angle between the petiole and the stem shoot or blade. […]

The subject of assay [1] is mature cotton leaf explants. The assay can be described thus: Ethylene-induced petiole abscission of mature cotton leaf explants. Type of assay: in vivo, cotton (Gossyium hirsutum barbadense L.). To be noted: for abscission: day 5. The protocol:
(1) Abscission—This is a very sensitive model system for studying the effects of plant hormones. Ethylene induces the process of abscission, while auxin delays it. In the laboratory the experimental system is based on plant organ explants, which include the abscission zone. Abscission is induced by exposure to ethylene and at the termination of the experiment the number of abscised organs, usually either leaf blades or petioles are counted and the fraction of abscission is calculated. In the case of fruit, the decrease in fruit retention force is analyzed. In cotton, when WS-CPD (the ethylene-action antagonist herein disclosed) is tested, the whole plants or explants are pretreated by spraying with the antagonist, dissolved in a phosphate buffer solution (10-20 mM, pH 7.0) including 0.1% commercially available Kinetic™ as surfactant, and left to incubate for a predetermined time, usually between 6 and 24 h. The plants or explants are then further exposed for 24 h to ethylene gas (5 to 20 μL L^−1). The plants or explants are then ventilated and incubated for the required time under controlled conditions. At the end of the experiment the percentage of abscission is determined. (2) Chlorophyll degradation—This is a standard model for studying senescence. Plant material (whole plants, excised leaves or leaf discs) are pretreated. In cotton, tobacco and wheat, when WS-CPD is tested, the whole plants or explants are pretreated by spraying with the antagonist, dissolved in phosphate buffer solution (10-20 mM, pH 7.0) including 0.1% commercially available Kinetic™ surfactant, and left to incubate for a predetermined time, usually between 6 and 241. The plants or explants are then further exposed for 24 h to ethylene gas (1 to 100 μL L^−1), or sprayed with Ethephon™ (wheat; 250 to 750 μL L^−1). The plants or explants are then ventilated and incubated for the required time under controlled conditions. At the end of the experiment a dimethylsulfoxide (DMSO) extract of the plant tissue is prepared, and the chlorophyll content of the extract is determined by spectrophotometric analysis. The chlorophyll content is reported either on a fresh, dry weight basis, or on a surface area basis. (3) Epinasty—This is also one of the classical methods for studying ethylene effects in plants. The extent of ethylene-induced epinasty of leaves is determined by measuring the change of the angle between the petiole and the stem shoot or blade. After exposure of the intact plant to ethylene, the upright grown leaves bend downward. The increase in the angle values (degrees) between petiole and the stem is used as a measure of the effect of the ethylene. […]

As to `O=C([O-])CCC1=CC1.[Na+]` [WS-CPD, 3-cyclopropyl-1-enyl-propanoic sodium salt], the “increase in grain yield over untreated control plants” value in the assay with wheat plants is −15%. In the assay on young cotton seedlings (WS-CPD 10 and 30 μg mL^−1, ethylene 10 μL L^−1), the ethylene-induced leaf epinasty entry was “completely reversed”. Further, in the assay on young cotton seedlings (WS-CPD spray 10 to 300 μg mL^−1, 24 h later ethylene 10 μL L^−1 for 24 h, three-week-old seedlings), the ethylene-induced epinasty result is given as “completely antagonized”. The abscission percentage result in assay [1] (WS-CPD 90 μg mL^−1) is reported as “slightly lower than that of the untreated air control”. Moreover, the abscission was determined as 100% in assay [1] (WS-CPD 10, 30 and 90 μg mL^−1); 50% in assay [1] (WS-CPD 240-480 μg mL^−1). Besides, the decrease of abscission in assay [1] (WS-CPD 10 and 30 μg mL^−1, after 3 days of incubation, ethylene 10 μL L^−1) is 20%.

The values are drawn from patent publication US9363996B2, “Compositions and method for blocking ethylene response in field crops using 3-(cy-clopropyl-l-enyl)-propanoic salt” (Yissum Research Development Company of the Hebrew …, priority 2009, dated 2016).
